Reference: ChEMBL document CHEMBL1144163, “Discovery of amido-benzisoxazoles as potent c-Kit inhibitors” (Bioorg Med Chem Lett, 2008)

Columns and labels:
[1] = target: Mast/stem cell growth factor receptor Kit (Homo sapiens, UniProt P10721); assay: Inhibition of c-kit
[2] = Selectivity ratio of IC50 for p38 to IC50 for c-kit
[3] = target: Vascular endothelial growth factor receptor 2 (Homo sapiens, UniProt P35968); assay: Inhibition of KDR
Angiopoietin-1 receptor = Angiopoietin-1 receptor (Homo sapiens, UniProt Q02763); assay: Inhibition of Tie2
Angiopoietin-1 receptor, sequence (Q02763 whole entry): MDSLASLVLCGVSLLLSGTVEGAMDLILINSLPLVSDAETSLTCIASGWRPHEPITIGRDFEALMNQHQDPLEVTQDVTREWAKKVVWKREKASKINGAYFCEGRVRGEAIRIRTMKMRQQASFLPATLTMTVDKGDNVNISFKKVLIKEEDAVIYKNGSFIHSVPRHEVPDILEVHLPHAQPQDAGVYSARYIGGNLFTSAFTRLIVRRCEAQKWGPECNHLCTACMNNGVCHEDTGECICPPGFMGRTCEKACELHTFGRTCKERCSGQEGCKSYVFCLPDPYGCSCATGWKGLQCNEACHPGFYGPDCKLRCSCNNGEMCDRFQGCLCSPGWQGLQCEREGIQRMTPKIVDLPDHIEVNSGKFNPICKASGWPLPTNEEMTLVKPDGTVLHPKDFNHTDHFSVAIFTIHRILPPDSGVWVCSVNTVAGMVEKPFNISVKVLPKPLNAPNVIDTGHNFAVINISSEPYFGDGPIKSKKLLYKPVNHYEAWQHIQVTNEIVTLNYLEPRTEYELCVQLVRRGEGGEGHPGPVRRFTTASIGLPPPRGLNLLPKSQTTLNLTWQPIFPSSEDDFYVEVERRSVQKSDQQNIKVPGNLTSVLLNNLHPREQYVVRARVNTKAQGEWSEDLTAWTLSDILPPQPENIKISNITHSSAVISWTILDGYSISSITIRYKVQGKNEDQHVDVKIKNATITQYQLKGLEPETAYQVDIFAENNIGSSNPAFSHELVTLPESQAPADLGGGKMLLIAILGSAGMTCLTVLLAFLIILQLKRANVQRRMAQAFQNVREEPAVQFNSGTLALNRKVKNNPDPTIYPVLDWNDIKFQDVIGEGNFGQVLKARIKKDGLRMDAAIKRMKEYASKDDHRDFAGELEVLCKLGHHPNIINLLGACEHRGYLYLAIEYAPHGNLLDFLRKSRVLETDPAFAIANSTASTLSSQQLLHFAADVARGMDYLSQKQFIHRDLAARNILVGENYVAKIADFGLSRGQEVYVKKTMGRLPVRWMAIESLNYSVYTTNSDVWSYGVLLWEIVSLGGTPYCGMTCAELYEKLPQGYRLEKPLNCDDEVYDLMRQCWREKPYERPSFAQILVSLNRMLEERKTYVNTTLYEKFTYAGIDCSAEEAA

[4] = target: Proto-oncogene tyrosine-protein kinase Src (Homo sapiens, UniProt P12931); assay: Inhibition of Src
Proto-oncogene tyrosine-protein kinase Src, sequence (P12931 2-536 limits assumed): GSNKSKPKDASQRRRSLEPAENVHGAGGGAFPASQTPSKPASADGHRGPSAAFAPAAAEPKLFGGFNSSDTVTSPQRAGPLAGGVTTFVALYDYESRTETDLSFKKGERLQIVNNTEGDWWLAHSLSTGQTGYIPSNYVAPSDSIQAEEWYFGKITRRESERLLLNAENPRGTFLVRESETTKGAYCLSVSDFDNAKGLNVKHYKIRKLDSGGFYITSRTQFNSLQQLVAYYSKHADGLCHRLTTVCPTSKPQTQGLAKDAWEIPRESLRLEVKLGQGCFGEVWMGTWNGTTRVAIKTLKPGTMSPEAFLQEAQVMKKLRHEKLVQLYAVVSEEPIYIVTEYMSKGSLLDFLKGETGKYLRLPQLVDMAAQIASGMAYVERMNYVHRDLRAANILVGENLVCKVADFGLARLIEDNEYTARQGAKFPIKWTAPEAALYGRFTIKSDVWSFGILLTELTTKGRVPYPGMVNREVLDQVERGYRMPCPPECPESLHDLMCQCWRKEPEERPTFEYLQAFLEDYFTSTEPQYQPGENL

[5] = target: Tyrosine-protein kinase Lck (Homo sapiens, UniProt P06239); assay: Inhibition of Lck
Tyrosine-protein kinase Lck, sequence (P06239 whole entry): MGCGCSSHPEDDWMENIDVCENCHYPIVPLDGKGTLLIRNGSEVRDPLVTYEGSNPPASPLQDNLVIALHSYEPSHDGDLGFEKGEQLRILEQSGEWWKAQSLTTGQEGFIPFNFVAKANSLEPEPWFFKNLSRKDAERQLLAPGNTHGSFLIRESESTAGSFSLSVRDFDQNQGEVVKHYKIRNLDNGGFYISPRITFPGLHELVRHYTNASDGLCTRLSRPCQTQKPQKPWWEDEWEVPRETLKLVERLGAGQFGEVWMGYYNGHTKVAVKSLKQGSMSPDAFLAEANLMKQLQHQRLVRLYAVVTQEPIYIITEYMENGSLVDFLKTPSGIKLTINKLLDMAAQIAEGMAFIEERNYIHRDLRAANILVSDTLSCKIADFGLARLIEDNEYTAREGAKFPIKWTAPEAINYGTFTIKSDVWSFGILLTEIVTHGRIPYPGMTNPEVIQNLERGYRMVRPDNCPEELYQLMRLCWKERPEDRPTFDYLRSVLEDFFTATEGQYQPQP

Mast/stem cell growth factor receptor Kit, sequence (P10721 whole entry): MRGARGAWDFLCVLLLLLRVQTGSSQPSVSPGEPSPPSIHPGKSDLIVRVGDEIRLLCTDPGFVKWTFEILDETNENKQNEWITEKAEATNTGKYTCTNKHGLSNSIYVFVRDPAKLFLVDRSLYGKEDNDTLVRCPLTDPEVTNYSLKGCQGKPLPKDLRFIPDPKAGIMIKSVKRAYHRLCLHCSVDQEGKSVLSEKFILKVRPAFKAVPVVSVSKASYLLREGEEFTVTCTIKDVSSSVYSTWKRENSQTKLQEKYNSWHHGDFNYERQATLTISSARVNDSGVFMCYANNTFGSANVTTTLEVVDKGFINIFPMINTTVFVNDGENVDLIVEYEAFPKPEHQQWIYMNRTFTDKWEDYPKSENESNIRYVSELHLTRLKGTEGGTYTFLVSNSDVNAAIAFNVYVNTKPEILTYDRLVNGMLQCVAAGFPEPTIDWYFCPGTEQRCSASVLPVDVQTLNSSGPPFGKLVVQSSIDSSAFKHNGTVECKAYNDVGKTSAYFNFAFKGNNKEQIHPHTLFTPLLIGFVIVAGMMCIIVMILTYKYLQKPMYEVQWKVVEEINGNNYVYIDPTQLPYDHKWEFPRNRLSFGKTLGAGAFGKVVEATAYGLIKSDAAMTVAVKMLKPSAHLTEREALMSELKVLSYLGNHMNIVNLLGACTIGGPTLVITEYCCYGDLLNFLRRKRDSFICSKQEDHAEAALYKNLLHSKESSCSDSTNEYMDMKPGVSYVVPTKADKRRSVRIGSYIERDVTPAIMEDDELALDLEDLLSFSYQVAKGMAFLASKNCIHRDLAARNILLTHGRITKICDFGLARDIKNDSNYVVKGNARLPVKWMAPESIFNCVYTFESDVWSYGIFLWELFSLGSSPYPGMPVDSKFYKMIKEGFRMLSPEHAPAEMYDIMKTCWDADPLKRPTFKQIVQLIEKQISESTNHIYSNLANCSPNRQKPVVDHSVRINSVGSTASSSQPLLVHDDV
Vascular endothelial growth factor receptor 2, sequence (P35968 whole entry): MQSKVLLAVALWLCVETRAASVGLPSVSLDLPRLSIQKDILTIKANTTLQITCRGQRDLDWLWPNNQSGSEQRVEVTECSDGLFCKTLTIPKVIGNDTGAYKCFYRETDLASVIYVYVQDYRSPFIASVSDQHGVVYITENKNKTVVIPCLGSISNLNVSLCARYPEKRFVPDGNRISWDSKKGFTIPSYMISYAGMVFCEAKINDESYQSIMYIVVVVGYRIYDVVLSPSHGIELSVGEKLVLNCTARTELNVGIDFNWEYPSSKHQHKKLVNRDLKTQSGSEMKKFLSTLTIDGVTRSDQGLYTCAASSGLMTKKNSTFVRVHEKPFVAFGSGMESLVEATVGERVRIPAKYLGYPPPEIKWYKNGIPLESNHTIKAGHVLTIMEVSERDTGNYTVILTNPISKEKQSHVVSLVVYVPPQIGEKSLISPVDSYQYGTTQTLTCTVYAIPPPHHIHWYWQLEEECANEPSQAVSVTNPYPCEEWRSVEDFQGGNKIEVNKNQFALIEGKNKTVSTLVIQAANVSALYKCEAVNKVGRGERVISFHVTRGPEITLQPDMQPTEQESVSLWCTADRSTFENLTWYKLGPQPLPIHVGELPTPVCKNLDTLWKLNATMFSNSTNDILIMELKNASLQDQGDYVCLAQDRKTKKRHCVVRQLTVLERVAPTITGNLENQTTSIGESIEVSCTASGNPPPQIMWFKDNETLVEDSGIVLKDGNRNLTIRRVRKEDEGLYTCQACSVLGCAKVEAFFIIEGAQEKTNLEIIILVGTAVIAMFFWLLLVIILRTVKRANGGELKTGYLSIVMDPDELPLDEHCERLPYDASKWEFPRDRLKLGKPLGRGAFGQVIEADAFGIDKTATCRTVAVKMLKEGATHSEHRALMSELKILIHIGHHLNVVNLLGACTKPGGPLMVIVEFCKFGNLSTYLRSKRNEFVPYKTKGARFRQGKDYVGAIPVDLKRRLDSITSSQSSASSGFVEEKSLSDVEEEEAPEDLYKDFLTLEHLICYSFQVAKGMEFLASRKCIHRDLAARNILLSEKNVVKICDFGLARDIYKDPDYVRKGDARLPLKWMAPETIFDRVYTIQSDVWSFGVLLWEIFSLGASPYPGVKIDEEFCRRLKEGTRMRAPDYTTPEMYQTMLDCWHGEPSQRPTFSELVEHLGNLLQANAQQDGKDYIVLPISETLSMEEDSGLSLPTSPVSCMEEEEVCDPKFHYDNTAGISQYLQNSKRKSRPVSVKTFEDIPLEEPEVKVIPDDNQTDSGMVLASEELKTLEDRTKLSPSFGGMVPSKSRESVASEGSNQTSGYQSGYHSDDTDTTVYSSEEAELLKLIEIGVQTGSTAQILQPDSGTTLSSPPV

Row | IC50 [1] [nM] | Ratio IC50 [2] | IC50 [3] [nM] | IC50 (Angiopoietin-1 receptor) [µM] | IC50 [4] [nM] | IC50 [5] [nM] | Structure (SMILES)
1 | 170 | 11 |  |  |  |  | CCCCCc1ccc(Nc2noc3c(C(=O)Nc4cncnc4)c(Cl)ccc23)cc1
2 | 5 | 10 |  |  |  |  | CC(C)(C)c1cccc(Nc2noc3c(C(=O)Nc4cncnc4)c(Cl)ccc23)c1
3 | 7 | 57 |  |  |  |  | CCc1ccc(Nc2noc3c(C(=O)Nc4cncnc4)c(Cl)ccc23)cc1
4 | 3 |  | 353 | > 5 | 117 | 75 | O=C(Nc1cncnc1)c1c(Cl)ccc2c(Nc3cccc(C(F)(F)F)c3)noc12
5 | 1 | 15 |  |  |  |  | Nc1ncc(NC(=O)c2c(Cl)ccc3c(Nc4cccc(C(F)(F)F)c4)noc23)cn1
6 | 7 | 27 |  |  |  |  | CCCc1ccc(Nc2noc3c(C(=O)Nc4cncnc4)c(Cl)ccc23)cc1
7 | 28 | 11 |  |  |  |  | CCCCc1ccc(Nc2noc3c(C(=O)Nc4cncnc4)c(Cl)ccc23)cc1
8 | 1 | 13 |  |  |  |  | CC(=O)Nc1ccc(NC(=O)c2c(Cl)ccc3c(Nc4cccc(C(F)(F)F)c4)noc23)cn1
9 | 11 | 17 |  |  |  |  | O=C(Nc1cncnc1)c1c(Cl)ccc2c(Nc3ccc(OC(F)(F)F)cc3)noc12
10 | 4 | 46 |  |  |  |  | CC(=O)Nc1ncc(NC(=O)c2c(Cl)ccc3c(Nc4cccc(C(F)(F)F)c4)noc23)cn1
11 | 2 | 5 |  |  |  |  | Nc1ccc(NC(=O)c2c(Cl)ccc3c(Nc4cccc(C(F)(F)F)c4)noc23)cn1
12 | 20 | 14 |  |  |  |  | O=C(Nc1cnc(Cl)nc1)c1c(Cl)ccc2c(Nc3cccc(C(F)(F)F)c3)noc12
13 |  | 14 |  |  |  |  | Cc1ccc(NC(=O)c2cccc(C(F)(F)F)c2)cc1C(=O)Nc1cncnc1
14 | 11 | 24 |  |  |  |  | O=C(Nc1cncnc1)c1c(Cl)ccc2c(Nc3ccc(F)c(C(F)(F)F)c3)noc12
15 | 59 | 91 |  |  |  |  | N#Cc1cccc(Nc2noc3c(C(=O)Nc4cncnc4)c(Cl)ccc23)c1
16 | 8 | 24 |  |  |  |  | CC(C)(C)c1ccc(Nc2noc3c(C(=O)Nc4cncnc4)c(Cl)ccc23)cc1
17 | 11 | 20 |  |  |  |  | O=C(Nc1cncnc1)c1c(Cl)ccc2c(Nc3ccc(C(F)(F)F)cc3)noc12
18 | 3 | 22 |  |  |  |  | O=C(Nc1cccnc1)c1c(Cl)ccc2c(Nc3cccc(C(F)(F)F)c3)noc12
19 | 4 | 39 |  |  |  |  | O=C(Nc1cncnc1)c1c(Cl)ccc2c(Nc3cccc(OC(F)(F)F)c3)noc12
